Source: patent publication US8039634B2, “Oxazole hydroxamic acid derivatives and use thereof” (SK Holdings Co., Ltd., priority 2005, dated 2011)
Values after ≈ are worked out from the molar mass of the structure shown.

test system: HDAC; test: Inhibition of HDAC activity (fluorometric, HeLa nuclear extract); type: biochemical, human; conditions: 30 min room temperature
Description: In order to determine inhibitory activity of a compound in accordance with the present invention on HDAC, evaluation was carried out using an aminocoumarin derivative of ω-acetylated lysine as a substrate for an enzyme. As an enzyme source, a nuclear extract obtained from human cervical cancer cell line HeLa cells was used. The above evaluation was carried out with modification of a method based on the details described in Weegener et al. (2003) Analytical Biochemistry, 321, 203-208. That is, […], […] of nuclear extract and a compound of Example 1 at different concentrations were added and maintained at room temperature for 30 min. Trypsin (10 mg/ml) and Trichostatin A (final concentration: […]) were added to the resulting mixture which was reacted at the same temperature for 20 min, thereby terminating the reaction. The enzyme activity-inhibitory concentration of the compound added was determined using a fluorometer. As a control compound, suberoylanilide hydroxamic acid (SAHA) was used. IC50 in Table 1 below refers to a concentration of the compound that leads to a 50% decrease in activity of HDAC.

Row | SMILES | IC50 [µM]
1 | COc1ccc(-c2oc(CCCCCCC(=O)NO)nc2-c2ccccc2)cc1 [Example 1, 7-(5-(4-methoxyphenyl)-4-phenyloxazol-2-yl)heptanoic acid hydroxyamide] | 0.00107
2 | O=C(CCCCCCc1nc(-c2ccccc2)c(-c2ccccc2)o1)NO [Example 4, 7-(4,5-diphenyl-oxazol-2-yl)-heptanoic acid hydroxyamide] | 0.002
3 | O=C(CCCCCCc1nc(-c2ccccc2)c(-c2cccc(F)c2)o1)NO [Example 6, 7-[5-(3-fluoro-phenyl)-4-phenyl-oxazol-2-yl]-heptanoic acid hydroxyamide] | 0.00148
4 | COc1ccc(-c2nc(CCCCCCC(=O)NO)oc2-c2ccc(OC)cc2)cc1 [Example 10, 7-[4,5-bis-(4-methoxy-phenyl)-oxazol-2-yl]-heptanoic acid hydroxyamide] | 0.00047

test system: HeLa; test: In vitro toxicity / growth inhibition (CellTiter-Glo), HeLa; type: cell-based; conditions: Homo sapiens, 48 hr
Description: (§1) In order to determine in vitro toxicity of a compound in accordance with the present invention, 18 species of human cancer cell lines (HeLa, cervical cancer cell line; HCT116, SW480, SW620, RKO, colon cancer cell lines; H460, H1299, A549, lung cancer cell lines; MCF7, MDA-MB231, MDA-MB453, breast cancer cell lines; Jurkat, K562, THP1, Ramos, U937, blood cancer cell lines; PC3, DU145, prostate cancer cell lines) were used. Cell lines were cultured in RPMI 1640 culture medium containing penicillin/streptomycin (100 units/mL) and heat-inactivated 5% fetal bovine serum (FBS) under standard culture conditions ([…], 5% CO2, and 100% relative humidity). Thereafter, single cell suspension was obtained via trypsin treatment and pipetting. The suspension was diluted with the same medium such that a cell density is in a range of 8×10^3 to 1.5×10^4 cells/well, and was transferred to a 96-well microtiter plate. After culturing for 24 hours, cell cultures were treated with respective compounds of Examples at various concentrations. […] The above evaluation was carried out according to the methods given in a manufacture's manual. GI50 in Table 1 below refers to a concentration that compounds of Examples cause 50% growth inhibition of various cancer cells.

Row | SMILES | GI50 [µM]
5 | COc1ccc(-c2oc(CCCCCCC(=O)NO)nc2-c2ccccc2)cc1 [Example 1, 7-(5-(4-methoxyphenyl)-4-phenyloxazol-2-yl)heptanoic acid hydroxyamide] | 1.4
6 | O=C(CCCCCCc1nc(-c2ccccc2)c(-c2ccccc2)o1)NO [Example 4, 7-(4,5-diphenyl-oxazol-2-yl)-heptanoic acid hydroxyamide] | 2.5
7 | O=C(CCCCCCc1nc(-c2ccccc2)c(-c2cccc(F)c2)o1)NO [Example 6, 7-[5-(3-fluoro-phenyl)-4-phenyl-oxazol-2-yl]-heptanoic acid hydroxyamide] | 10.7
8 | COc1ccc(-c2nc(CCCCCCC(=O)NO)oc2-c2ccc(OC)cc2)cc1 [Example 10, 7-[4,5-bis-(4-methoxy-phenyl)-oxazol-2-yl]-heptanoic acid hydroxyamide] | 3

test system: HCT116; test: In vitro toxicity / growth inhibition (CellTiter-Glo), HCT116; type: cell-based; conditions: Homo sapiens, HCT-116; HCT116, 48 hr
Description: as §1

Row | SMILES | GI50 [µM]
9 | COc1ccc(-c2oc(CCCCCCC(=O)NO)nc2-c2ccccc2)cc1 [Example 1, 7-(5-(4-methoxyphenyl)-4-phenyloxazol-2-yl)heptanoic acid hydroxyamide] | 3
10 | O=C(CCCCCCc1nc(-c2ccccc2)c(-c2ccccc2)o1)NO [Example 4, 7-(4,5-diphenyl-oxazol-2-yl)-heptanoic acid hydroxyamide] | 3.5
11 | O=C(CCCCCCc1nc(-c2ccccc2)c(-c2cccc(F)c2)o1)NO [Example 6, 7-[5-(3-fluoro-phenyl)-4-phenyl-oxazol-2-yl]-heptanoic acid hydroxyamide] | 9.5
12 | COc1ccc(-c2nc(CCCCCCC(=O)NO)oc2-c2ccc(OC)cc2)cc1 [Example 10, 7-[4,5-bis-(4-methoxy-phenyl)-oxazol-2-yl]-heptanoic acid hydroxyamide] | 2.4

test system: H460; test: In vitro toxicity / growth inhibition (CellTiter-Glo), H460; type: cell-based; conditions: Homo sapiens, NCI-H460; H460, 48 hr
Description: as §1

Row | SMILES | GI50 [µM]
13 | COc1ccc(-c2oc(CCCCCCC(=O)NO)nc2-c2ccccc2)cc1 [Example 1, 7-(5-(4-methoxyphenyl)-4-phenyloxazol-2-yl)heptanoic acid hydroxyamide] | 3.63
14 | O=C(CCCCCCc1nc(-c2ccccc2)c(-c2cccc(F)c2)o1)NO [Example 6, 7-[5-(3-fluoro-phenyl)-4-phenyl-oxazol-2-yl]-heptanoic acid hydroxyamide] | 15.8
15 | COc1ccc(-c2nc(CCCCCCC(=O)NO)oc2-c2ccc(OC)cc2)cc1 [Example 10, 7-[4,5-bis-(4-methoxy-phenyl)-oxazol-2-yl]-heptanoic acid hydroxyamide] | 9.2

test system: MCF7; test: In vitro toxicity / growth inhibition (CellTiter-Glo), MCF7; type: cell-based; conditions: Homo sapiens; MCF7, 48 hr
Description: as §1

Row | SMILES | GI50 [µM]
16 | COc1ccc(-c2oc(CCCCCCC(=O)NO)nc2-c2ccccc2)cc1 [Example 1, 7-(5-(4-methoxyphenyl)-4-phenyloxazol-2-yl)heptanoic acid hydroxyamide] | 0.7
17 | O=C(CCCCCCc1nc(-c2ccccc2)c(-c2ccccc2)o1)NO [Example 4, 7-(4,5-diphenyl-oxazol-2-yl)-heptanoic acid hydroxyamide] | 6.6
18 | O=C(CCCCCCc1nc(-c2ccccc2)c(-c2cccc(F)c2)o1)NO [Example 6, 7-[5-(3-fluoro-phenyl)-4-phenyl-oxazol-2-yl]-heptanoic acid hydroxyamide] | 3.8
19 | COc1ccc(-c2nc(CCCCCCC(=O)NO)oc2-c2ccc(OC)cc2)cc1 [Example 10, 7-[4,5-bis-(4-methoxy-phenyl)-oxazol-2-yl]-heptanoic acid hydroxyamide] | 0.8

test system: not listed separately; test: Solubility; type: physicochemical; conditions: not given

Row | SMILES | solubility [µg/mL]
20 | COc1ccc(-c2oc(CCCCCCC(=O)NO)nc2-c2ccccc2)cc1 [Example 1, 7-(5-(4-methoxyphenyl)-4-phenyloxazol-2-yl)heptanoic acid hydroxyamide] | 200 (≈ 507 µM)
21 | O=C(CCCCCCc1nc(-c2ccccc2)c(-c2ccccc2)o1)NO [Example 4, 7-(4,5-diphenyl-oxazol-2-yl)-heptanoic acid hydroxyamide] | 200 (≈ 549 µM)
22 | O=C(CCCCCCc1nc(-c2ccccc2)c(-c2cccc(F)c2)o1)NO [Example 6, 7-[5-(3-fluoro-phenyl)-4-phenyl-oxazol-2-yl]-heptanoic acid hydroxyamide] | 400 (≈ 1050 µM)
23 | COc1ccc(-c2nc(CCCCCCC(=O)NO)oc2-c2ccc(OC)cc2)cc1 [Example 10, 7-[4,5-bis-(4-methoxy-phenyl)-oxazol-2-yl]-heptanoic acid hydroxyamide] | 200 (≈ 471 µM)

test system: Histone Deacetylase; test: Histone H3/H4 acetylation in HCT116 cells (Western blot); type: cell-based, human; conditions: 1 μM, HCT116, 0, 2 and 5 hours
Description: Human color cancer cell line (HCT116) was cultured in RPMI 1640 culture medium containing penicillin/streptomycin (100 units/mL) and heat-inactivated 5% fetal bovine serum (FBS) under standard culture conditions ([…], 5% CO2, 37° C., and 100% relative humidity). Test compounds were dissolved in dimethylsulfoxide (DMSO) and were used as a final concentration of 1 μM. Cells (3×10^7) were cultured in the presence of the test compound (1 μM, Example 1) and absence thereof for 0, 2 and 5 hours, respectively. The cell suspension, which was obtained via trypsin treatment and pipetting, was centrifuged at 200×g for 10 min to form a pellet. The thus-formed pellet was washed twice with 10-fold volume of saline and re-suspended in a buffer [[…], pH 7.9, 1.5 mM MgCl2, 10 mM KCl, 0.5 mM DTT, 1.5 mM PMSF]. Thereafter, hydrochloric acid was added in a final concentration of 0.2 M to the resulting suspension which was then stored on ice for 30 min. The final suspension was centrifuged at 11,000 rpm and 4° C. for 10 min. […]
Dialyzed proteins were subjected to gel electrophoresis using 16% protein gel and were probed with acetylated histone H3 (Ac-H3) or H4 (Ac-H4) antibodies (Upstate Biotechnology Inc). […] In order to compare the equal amount of proteins, protein quantification and protein gel were run in parallel, followed by coumassie blue staining.

Row | SMILES | Acetylation of histone H3 (Ac-H3) and H4 (Ac-H4)
24 | COc1ccc(-c2oc(CCCCCCC(=O)NO)nc2-c2ccccc2)cc1 [Example 1, 7-(5-(4-methoxyphenyl)-4-phenyloxazol-2-yl)heptanoic acid hydroxyamide] | acetylated over time was confirmed via Western blot analysis

test system: ICR-BG mice; test: not given; conditions: mouse, in vivo, 0.5 h
Description: In order to confirm acute toxicity in vivo, a Rotarod Neurotoxicity test was carried out on ICR-BG mice (N=8). Animals were administered at a dose of 300 mg/kg. Animals received training at 7 rpm for 10 min twice, and 1 hour later the compound of Example 1 was administered intraperitoneally (ip) to 8 mice. Thereafter, for one minute at the intervals of every 30 min, 1 hour, 2 hours and 4 hours, times that animals fell from the rotarod and death of animal post-drug administration or affliction-related responses were continuously observed. When mice fell from the rotarod more than thrice in one minute, it was regarded as fall off.

Row | SMILES | Mice fallen off rotarod
25 | COc1ccc(-c2oc(CCCCCCC(=O)NO)nc2-c2ccccc2)cc1 [Example 1, 7-(5-(4-methoxyphenyl)-4-phenyloxazol-2-yl)heptanoic acid hydroxyamide] | 1/8(Fallen off)

same assay, conditions: mouse, in vivo, 1 h

Row | SMILES | Mice fallen off rotarod
26 | COc1ccc(-c2oc(CCCCCCC(=O)NO)nc2-c2ccccc2)cc1 [Example 1, 7-(5-(4-methoxyphenyl)-4-phenyloxazol-2-yl)heptanoic acid hydroxyamide] | 1/8

same assay, conditions: mouse, in vivo, 2 h

Row | SMILES | Mice fallen off rotarod
27 | COc1ccc(-c2oc(CCCCCCC(=O)NO)nc2-c2ccccc2)cc1 [Example 1, 7-(5-(4-methoxyphenyl)-4-phenyloxazol-2-yl)heptanoic acid hydroxyamide] | 0/8

same assay, conditions: mouse, in vivo, 4 h

Row | SMILES | Mice fallen off rotarod
28 | COc1ccc(-c2oc(CCCCCCC(=O)NO)nc2-c2ccccc2)cc1 [Example 1, 7-(5-(4-methoxyphenyl)-4-phenyloxazol-2-yl)heptanoic acid hydroxyamide] | 0/8

test system: Raw cell; test: Inhibition of LPS-induced NO increases; type: cell-based, Mouse; conditions: 5 μM compound, LPS, 18 hours, Griess Reagent
Description: As one of the methods to confirm anti-inflammatory responses, inhibition of increases in nitric oxide (NO) due to lipopolysaccharide (LPS) was carried out. Mouse cell line (Raw cell) was cultured in RPMI 1640 culture medium containing penicillin/streptomycin (100 units/mL) and heat-inactivated 5% fetal bovine serum (FBS) under standard culture conditions ([…], 5% CO2, 37° C., and 100% relative humidity). Test compounds were dissolved in dimethylsulfoxide (DMSO) and were used as a final concentration of 1 to 40 μM. Cells were proliferated to a cell density of 5×10^3 to 2×10^4 cells on a 24-well plate and were treated with the respective compounds (equal amounts of 5 μM) 1 hour prior to treatment with LPS ([…]). The thus-treated cells were cultured for 18 hours, and thereafter the amounts of NO thus produced were measured using Griess Reagent. Measurement was confirmed using an absorption spectrophotometer at 540 nm. The value was expressed as percentage (%) relative to a control in which LPS alone was treated.

Row | SMILES | NO [μM/L]
29 | COc1ccc(-c2oc(CCCCCCC(=O)NO)nc2-c2ccccc2)cc1 [Example 1, 7-(5-(4-methoxyphenyl)-4-phenyloxazol-2-yl)heptanoic acid hydroxyamide] | 63.7
30 | O=C(CCCCCCc1nc(-c2ccccc2)c(-c2cccc(F)c2)o1)NO [Example 6, 7-[5-(3-fluoro-phenyl)-4-phenyl-oxazol-2-yl]-heptanoic acid hydroxyamide] | 70.6

same assay, conditions: Mus musculus, 18 h; 5 μM compound, relative to LPS alone control

Row | SMILES | activity at 5 µM [%]
31 | COc1ccc(-c2oc(CCCCCCC(=O)NO)nc2-c2ccccc2)cc1 [Example 1, 7-(5-(4-methoxyphenyl)-4-phenyloxazol-2-yl)heptanoic acid hydroxyamide] | 57.9
32 | O=C(CCCCCCc1nc(-c2ccccc2)c(-c2cccc(F)c2)o1)NO [Example 6, 7-[5-(3-fluoro-phenyl)-4-phenyl-oxazol-2-yl]-heptanoic acid hydroxyamide] | 77.1
